In general, EC50 refers to the concentration that produces a half-maximal response.

In data set [1] the test system is human breast cancer cell MCF-7. As to the kind of experiment: Cytotoxicity experiment (trypan blue dead cell count, 3 days incubation). The format is cell-based. The conditions noted are these: for EC50: concentration of 50% of dead cells, 3 days incubation. How it is done:
(§1) Cytotoxicity experiments were carried out by using human prostate cancer cell PC-3 (Invest. Urology 17: 16, (1979)), human lung cancer cell A-549 (J. Nat. Cancer Inst. 51: 1417, (1973)) and human breast cancer cell MCF-7 (cr. Table 1). Cells used in the experiments were obtained from Laboratory Products Dept. of Dainippon Pharmaceuticals Inc. (now Dainippon Sumitomo Pharma Co., Ltd.). • (1) In 3 cm plastic petri dish, 5×10^6 of the above human origin cancer cell was incubated at 37° C. under 5% CO2 gas on an incubation medium wherein 10% fetal bovine serum (FBS) was added to a basal medium Dulbecco's modified eagle medium (DMEM). • (2) It was confirmed 1 day after the incubation that the cells were adhered to the petri dish. All incubation media were discarded, and to the cells were added fresh media (1 ml) to give reaction media. Thereto was added a solution of a test compound in DMSO (2 μl), and the mixture was incubated for 3 days under the same conditions as in the above (1). • (3) 3 days after the incubation, all cells were collected with a scrapper, and the mixture was softly stirred. Then, an aliquot (0.1 ml) was taken into a tube, and thereto was added 0.25% trypan blue solution (0.1 ml), and the mixture was stirred and then allowed to stand for 10 minutes. Both of dead and live cells suspended in the mixture were observed using a white cell counter under light microscope to calculate cytotoxicity effects to the cancer cells. • (4) The number of the observed dead cells was calculated on the basis of the total number of cells observed as 100% using a white cell counter. Each bioactivity evaluation of each compound was represented by EC50 value (μM), which refers to a concentration of 50% of dead cells (cf. Table 1).

Data set [2] relates to human lung cancer cell A-549. The description is as above. The class given is cell-based. Particulars: for EC50: concentration of 50% of dead cells, 3 days incubation. How it is done: as §1
In data set [3] the test system is human prostate cancer cell PC-3. Described as above. The conditions noted are these: for EC50: concentration of 50% of dead cells, 3 days incubation. The format is cell-based. The protocol:
as §1

In data set [4] the test system is Epstein-Barr virus early antigen (EBV-EA). Description: Inhibitory effect of TPA-induced EBV-EA activation in Raji cells. Particulars: for EBV-EA-positive cell: Raji cells, 2 days. The format is cell-based, human. How it is done: (§2) Additionally, cancer-preventing effects about Epstein-Barr virus early antigen (EBV-EA) using Raji cell, which was available from George Klein, Karolinska Institute, Sweden, were studied (cf. Table 2). • (1) To a reaction culture (1 ml) in a 15 ml plastic tube were added 1×10^6 of lymphoma Raji cells of human origin, and the mixture was incubated for 2 days at 37° C. under 5% CO2 gas. The reaction culture was a solution wherein butyric acid was added to RPMI-1640 (Roswell Park Memorial Institute) medium containing 8% FBS in a concentration of 4 mM. In case of positive controls, to the reaction culture was added 12-O-tetradecanoylphorbol-13-acetate (TPA) (20 ng, 32 pmol). • (2) Analysis was carried out by adding test compounds to the reaction culture in the above (1) with TPA in 1000, 500, 100 and 10 times higher concentration by mole (32, 16, 3.2 and 0.32 nmol) to TPA and incubating in a similar manner to the above. • (3) 2 days after incubation, a reaction tube was centrifuged at 1000 rpm for 10 minutes, and supernatants were discarded to collect reaction cells at the bottom of the tube, and thereto was added a phosphate buffered saline (0.1 ml) and the mixture was mixed well. To a glass slide for pathological pieces was added the mixture (5 μl), and then the mixture was air-dried to dryness. • (4) An antigen-antibody reaction was carried out at 37° C. in wet process by adding a diluted serum (1 μl) of patient with epipharynx carcinoma to the dried mixture. 45 minutes after the reaction, the resultant was washed with neutral phosphate buffer three times and then air-dried in a similar manner to the above. Then, thereto was added human blood gamma globulin antibody (1 μl), wherein a fluorescent substance was bound, to carry out an antigen-antibody reaction. 45 minutes after the reaction, the mixture was washed with neutral phosphate buffer to give a test sample. • (5) The test sample on a glass slide was observed under fluorescent light microscope. Both of dead and live cells were calculated, and the survival ratio in percentage is shown as a cancer-preventing activity, and the data of each sample were compared (cf. Table 2).

A further data set concerns Raji cell. As to the kind of experiment: Survival of Raji cells in the EBV-EA activation test. The format is cell-based, human. Particulars: 2 days. The protocol: as §2
Setting [5] is: compound concentration 10 (molar ratio/32 pmol TPA).
Where [6] appears, read: compound concentration 100 (molar ratio/32 pmol TPA).
[7] abbreviates: compound concentration 500 (molar ratio/32 pmol TPA).
The mark [8] stands for this setting: compound concentration 1000 (molar ratio/32 pmol TPA).

Regarding `CC(O)c1cc2c(o1)C(=O)c1cccc(O)c1C2=O` (racemic) [Racemate NQ801, 2-(1-hydroxyethyl)-5-hydroxynaphtho[2,3-b]furan-4,9-dione], the EC50 turned out to be 8500 nM in data set [1] (Homo sapiens, MCF7, 72 h); 3240 nM in data set [2] (Homo sapiens, A549, 72 h); 560 nM in data set [3] (Homo sapiens, 72 h). Moreover, the EBV-EA-positive cell in data set [4] (setting [5]) was 52.9%; in data set [4] (setting [6]), 20.7%; in data set [4] (setting [7]), 6.2%; in data set [4] (setting [8]), 0%. Also, the “% survival (value in parentheses)” value is reported as “(70) %” in the data set with Raji cell (setting [7]) and 60% in the data set with Raji cell (setting [8]).

On to `C[C@@H](O)c1cc2c(o1)C(=O)c1cccc(O)c1C2=O` [(R)-NQ801], for which the results for the EC50 in data set [1], in data set [2] and in data set [3] were 9300 nM, 3000 nM and 930 nM, respectively. The EBV-EA-positive cell was found to be 59.4% in data set [4] (setting [5]), 24.7% in data set [4] (setting [6]), 9.7% in data set [4] (setting [7]) and 0% in data set [4] (setting [8]). Moreover, in the data set on Raji cell (setting [8]), the “% survival (value in parentheses)” value was 70%.

Consider `C[C@H](O)c1cc2c(o1)C(=O)c1cccc(O)c1C2=O` [(S)-NQ801, (S)-2-(1-hydroxyethyl)-5-hydroxynaphtho[2,3-b]-furan-4,9-dione], for which the EC50 turned out to be 3500 nM in data set [1] (Homo sapiens, MCF7, 72 h); 960 nM in data set [2] (Homo sapiens, A549, 72 h); 140 nM in data set [3] (Homo sapiens, 72 h). Besides, the “cytotoxicity compared with mitomycin” value is given as “same cytotoxicity as mitomycin” in data set [1] (MCF-7, statement in words); “same cytotoxicity as mitomycin” in data set [2] (A-549, statement in words); “same cytotoxicity as mitomycin” in data set [3] (PC-3, statement in words). Further, the EBV-EA-positive cell in data set [4] (setting [5]) was 50%; in data set [4] (setting [6]), 16.9%; in data set [4] (setting [7]), 4.4%; in data set [4] (setting [8]) it was 0%. For the same compound, the “inhibition of EBV-EA expression” value in data set [4] (statement in words) is listed as “inhibits EBV-EA expression”. Further, the “% survival (value in parentheses)” value in the data set with Raji cell (setting [7]) is reported as “(60) %”; in the data set with Raji cell (setting [8]), 60%.

On to `CO[C@@]12[C@H](COC(N)=O)C3=C(C(=O)C(C)=C(N)C3=O)N1C[C@@H]1N[C@@H]12` [Mitomycin], for which the EC50 in data set [1] (Homo sapiens, MCF7, 72 h) was determined as 960 nM; in data set [2] (Homo sapiens, A549, 72 h), 430 nM; in data set [3] (Homo sapiens, 72 h), 140 nM.

With `CC1(C)CCC2=C(O1)c1ccccc1C(=O)C2=O` [β-Lapachone, 3,4-dihydro-2,2-dimethyl-2H-naphtho(1,2-b)pyrane-5,6-dione], the EBV-EA-positive cell in data set [4] (setting [5]) turned out to be 73.1%; in data set [4] (setting [6]), 50.4%; in data set [4] (setting [7]) it was 21.7%; in data set [4] (setting [8]) it was 4.7%. In addition, the “% survival (value in parentheses)” value in the data set with Raji cell (setting [8]) worked out at 50%.

Values taken from patent publication US7538234B2, “Preparation of Optically active 2-(1-hydroxyethyl)-5-hydroxynaphtho[2,3-b]furan-4, 9-diones having anticancer activities” (Taheebo Japan Co., Ltd., priority 2007, dated 2009).
